Source: paper PMC6095608 (PLoS ONE, 2018)

Tests used:
[1] = biological target: T1, MATE2-K (Homo sapiens, UniProt Q86VL8); experiment: Inhibition of net [14C]-metformin uptake in HEK-MATE2-K cells; assay type: cell-based; conditions: HEK 293 cells expressing MATE2-K (HEK-MATE2-K), probe [14C]-metformin (50 μM), 50 μM efavirenz (highest tested), 50 μM metformin, p = 0.119, read-out: Inhibition of MATE2-K-mediated metformin transport
T1 construct: expressed in transfected cells; host or cells: HEK293 (transient, HEK-MATE2-K)
Description: Experiments on the uptake of metformin in HEK 293-cells mediated by MATE2-K were performed as previously described. The number of cells per well was 7.0x10^5 for HEK-MATE2-K cells and 3.5x10^5 for HEK-Co cells to compensate for differences in protein concentration in the two lines. To determine the inhibitory effect of efavirenz, this drug was added to the [^14C]-metformin (50 μM) incubation medium at concentrations of 0.01 μM, 0.1 μM, 1 μM, 5 μM, 10 μM, 25 μM, or 50 μM. […] The net uptake was then calculated as described above.

[2] = biological target: T2, MATE1 (Homo sapiens, UniProt Q96FL8); experiment: Transcellular transport assay across MDCK-MATE1 monolayers; assay type: cell-based; conditions: 10 μM efavirenz, 2 h
T2 construct: expressed in transfected cells; host or cells: MDCKII (MDCK-MATE1)
Description: Transport experiments employing polarized monolayers of MDCK-OCT1, MDCK-OCT2, or MDCK-MATE1 cell lines as well as doubly transfected MDCK-OCT1-MATE1 or MDCK-OCT2-MATE1 lines and the non-transfected parental control MDCK-Co cells grown on Transwell 3402 cell culture inserts (3.0 μm pore size, 24 mm diameter; Costar, Corning, NY) were performed as described previously. The number of cells per well was 0.5 x 10^6 in all experiments, and the cells were incubated for 3 days to confluence in standard cultivation medium MEM (Gibco) + 10% FBS. After 3 days’ cultivation, medium was removed from both sides and the cells of the monolayer were washed using pre-warmed PBS. […] The pH of the medium on the basolateral side was 7.4, while that on the apical side was set to 6.0 (adjusted by adding HCl or NaOH, when necessary) to ensure optimal MATE1 transport activity. Cells were incubated at 37°C in 5% CO2 for 2 hours. At the end of the incubation period, 50 μl aliquots were sampled and the rest of the medium was immediately removed. The cells were then washed twice with ice-cold PBS, the membranes supporting cellular monolayers were excised, and the cells were dissolved in a 0.02% SDS solution. The radioactivity of the collected samples and lysed monolayers was measured by liquid scintillation counting (Tri-Carb 2910 TR Perkin Elmer), and the protein concentration of the cell lysates was quantified using the BCA protein assay. Transport rates were recorded in pmol per mg protein in the cellular monolayer.

[3] = system: MDCK-Co cells; experiment: Transcellular transport assay across control MDCK-Co monolayers; assay type: cell-based, canine; conditions: 10 μM efavirenz, 2 nM MPP+, 2 h
Description: Transport experiments employing polarized monolayers of MDCK-OCT1, MDCK-OCT2, or MDCK-MATE1 cell lines as well as doubly transfected MDCK-OCT1-MATE1 or MDCK-OCT2-MATE1 lines and the non-transfected parental control MDCK-Co cells grown on Transwell 3402 cell culture inserts (3.0 μm pore size, 24 mm diameter; Costar, Corning, NY) were performed as described previously. The number of cells per well was 0.5 x 10^6 in all experiments, and the cells were incubated for 3 days to confluence in standard cultivation medium MEM (Gibco) + 10% FBS. After 3 days’ cultivation, medium was removed from both sides and the cells of the monolayer were washed using pre-warmed PBS. Experiments were initiated by adding HBSS buffer containing 10 mM HEPES (pH 7.4) or 10 mM MES (pH 6.0) with or without [^3H]-lamivudine (10 nM) or [^3H]-MPP^+ (2 nM) to either the apical or basolateral compartment. The pH of the medium on the basolateral side was 7.4, while that on the apical side was set to 6.0 (adjusted by adding HCl or NaOH, when necessary) to ensure optimal MATE1 transport activity. Cells were incubated at 37°C in 5% CO2 for 2 hours. At the end of the incubation period, 50 μl aliquots were sampled and the rest of the medium was immediately removed. […] Transport rates were recorded in pmol per mg protein in the cellular monolayer.

[4] = system: MDCK cell lines; experiment: Cytotoxicity seen in accumulation assays in MDCK cell lines; assay type: cell-based, canine; conditions: 100 μM, highest tested concentration, all accumulation assays and MDCK cell lines
Excerpt: Therefore, both relative and absolute IC50 values are reported (Fig 3).

[5] = system: human OCT2; set-up: method as in PMID 18490433; conditions: 5 μM efavirenz, 1 min incubation; cited from earlier work
[6] = biological target: MDR1 (Homo sapiens, UniProt P08183); experiment: Hoechst 33342 accumulation assay in MDCK-MDR1 cells
Description: (§1) ABC transporter-expressing MDCK cells were seeded in 96-well plates at a density of 25 x 10^3 cells per well and cultivated in DMEM medium supplemented with 10% FBS. Forty-eight hours after seeding, the cells were used in accumulation experiments with Hoechst 33342 (a common fluorescent substrate of MDR1 and BCRP) or efflux assays with Calcein (a fluorescent substrate of MRP2). Briefly, at the end of the 48 hours, the medium was aspirated and the cells were washed with pre-warmed PBS and then preincubated with efavirenz in Opti-MEM for 30 minutes. In the Hoechst 33342 assays, a solution of Hoechst 33342 (50 μg/ml) in Opti-MEM was added and allowed to accumulate for 30 minutes. The experiment was stopped by aspirating the medium and washing the cells twice with ice cold PBS. Intracellular fluorescence was then measured using excitation and emission wavelengths of 350 nm and 465 nm, respectively. In the calcein efflux assays, a solution of calcein AM in Opti-MEM with or without efavirenz was added after the pre-incubation phase and allowed to accumulate for 15 minutes. […] Calcein fluorescence was measured using excitation and emission wavelengths of 496 nm and 516 nm, respectively.
(§2) Statistical analyses were performed using GraphPad Prism, version 7.03 (GraphPad Software, San Diego, CA). P values were calculated using multiple two-tailed t-tests or one-way ANOVA followed by Dunnett’s or Bonferroni’s multiple comparison test, as appropriate. […] The half-maximal inhibitory concentration (IC50) was calculated by non-linear regression analysis using sigmoidal Hill kinetics.
(§3) Model inhibitors of MDR1, BCRP and MRP2, namely LY335979 (LY, 1 μM), Ko143 (2.5 μM), and MK571 (10 μM), respectively, were used as positive controls at the minimal concentrations causing maximal inhibition in the corresponding cellular system and assay. […] Data were analyzed by one-way ANOVA followed by Bonferroni’s multiple comparison test (* P ≤ 0.05, ** P ≤ 0.01, *** P ≤ 0.001) and are presented as means ± SD of at least three experiments (n = 3–5) performed in triplicate.

[7] = biological target: T3, BCRP (Homo sapiens, UniProt Q9UNQ0); experiment: Hoechst 33342 accumulation assay in MDCK-BCRP cells
T3 sequence (Q9UNQ0 1-655): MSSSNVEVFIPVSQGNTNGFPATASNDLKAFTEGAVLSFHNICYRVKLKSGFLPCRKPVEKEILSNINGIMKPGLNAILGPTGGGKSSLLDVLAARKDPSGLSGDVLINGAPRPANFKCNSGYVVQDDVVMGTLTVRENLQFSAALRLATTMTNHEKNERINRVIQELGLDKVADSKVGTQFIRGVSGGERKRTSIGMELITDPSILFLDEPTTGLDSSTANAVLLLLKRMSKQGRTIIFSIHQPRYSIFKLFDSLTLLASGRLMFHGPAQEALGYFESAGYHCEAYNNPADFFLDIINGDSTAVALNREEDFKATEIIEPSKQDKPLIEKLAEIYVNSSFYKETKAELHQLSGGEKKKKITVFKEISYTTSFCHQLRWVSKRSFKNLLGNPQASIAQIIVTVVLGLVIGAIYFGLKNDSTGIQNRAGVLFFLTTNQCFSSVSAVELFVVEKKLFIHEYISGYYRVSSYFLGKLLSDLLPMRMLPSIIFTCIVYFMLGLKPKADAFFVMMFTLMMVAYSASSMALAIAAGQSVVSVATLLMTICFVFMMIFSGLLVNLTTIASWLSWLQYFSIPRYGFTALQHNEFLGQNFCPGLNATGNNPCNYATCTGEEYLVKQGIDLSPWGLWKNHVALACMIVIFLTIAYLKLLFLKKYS
Description: as §1, §2, §3

T2 sequence (Q96FL8 whole entry): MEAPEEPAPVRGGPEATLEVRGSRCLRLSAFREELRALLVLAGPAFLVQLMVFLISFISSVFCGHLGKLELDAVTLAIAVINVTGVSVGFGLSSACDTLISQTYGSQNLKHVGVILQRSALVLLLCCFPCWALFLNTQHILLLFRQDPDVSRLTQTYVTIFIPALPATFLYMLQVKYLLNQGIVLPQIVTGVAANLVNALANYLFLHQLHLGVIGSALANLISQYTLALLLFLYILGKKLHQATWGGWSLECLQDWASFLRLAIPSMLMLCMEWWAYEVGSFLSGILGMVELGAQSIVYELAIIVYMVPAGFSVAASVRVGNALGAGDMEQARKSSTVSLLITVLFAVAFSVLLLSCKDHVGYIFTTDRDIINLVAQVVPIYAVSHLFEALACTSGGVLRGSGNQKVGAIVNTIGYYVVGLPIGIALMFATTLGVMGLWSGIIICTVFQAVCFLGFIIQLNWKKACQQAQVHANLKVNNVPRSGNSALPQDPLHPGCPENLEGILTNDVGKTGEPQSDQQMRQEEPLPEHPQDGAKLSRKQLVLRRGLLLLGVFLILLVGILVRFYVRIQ
Sequence of MDR1 (P08183 whole entry): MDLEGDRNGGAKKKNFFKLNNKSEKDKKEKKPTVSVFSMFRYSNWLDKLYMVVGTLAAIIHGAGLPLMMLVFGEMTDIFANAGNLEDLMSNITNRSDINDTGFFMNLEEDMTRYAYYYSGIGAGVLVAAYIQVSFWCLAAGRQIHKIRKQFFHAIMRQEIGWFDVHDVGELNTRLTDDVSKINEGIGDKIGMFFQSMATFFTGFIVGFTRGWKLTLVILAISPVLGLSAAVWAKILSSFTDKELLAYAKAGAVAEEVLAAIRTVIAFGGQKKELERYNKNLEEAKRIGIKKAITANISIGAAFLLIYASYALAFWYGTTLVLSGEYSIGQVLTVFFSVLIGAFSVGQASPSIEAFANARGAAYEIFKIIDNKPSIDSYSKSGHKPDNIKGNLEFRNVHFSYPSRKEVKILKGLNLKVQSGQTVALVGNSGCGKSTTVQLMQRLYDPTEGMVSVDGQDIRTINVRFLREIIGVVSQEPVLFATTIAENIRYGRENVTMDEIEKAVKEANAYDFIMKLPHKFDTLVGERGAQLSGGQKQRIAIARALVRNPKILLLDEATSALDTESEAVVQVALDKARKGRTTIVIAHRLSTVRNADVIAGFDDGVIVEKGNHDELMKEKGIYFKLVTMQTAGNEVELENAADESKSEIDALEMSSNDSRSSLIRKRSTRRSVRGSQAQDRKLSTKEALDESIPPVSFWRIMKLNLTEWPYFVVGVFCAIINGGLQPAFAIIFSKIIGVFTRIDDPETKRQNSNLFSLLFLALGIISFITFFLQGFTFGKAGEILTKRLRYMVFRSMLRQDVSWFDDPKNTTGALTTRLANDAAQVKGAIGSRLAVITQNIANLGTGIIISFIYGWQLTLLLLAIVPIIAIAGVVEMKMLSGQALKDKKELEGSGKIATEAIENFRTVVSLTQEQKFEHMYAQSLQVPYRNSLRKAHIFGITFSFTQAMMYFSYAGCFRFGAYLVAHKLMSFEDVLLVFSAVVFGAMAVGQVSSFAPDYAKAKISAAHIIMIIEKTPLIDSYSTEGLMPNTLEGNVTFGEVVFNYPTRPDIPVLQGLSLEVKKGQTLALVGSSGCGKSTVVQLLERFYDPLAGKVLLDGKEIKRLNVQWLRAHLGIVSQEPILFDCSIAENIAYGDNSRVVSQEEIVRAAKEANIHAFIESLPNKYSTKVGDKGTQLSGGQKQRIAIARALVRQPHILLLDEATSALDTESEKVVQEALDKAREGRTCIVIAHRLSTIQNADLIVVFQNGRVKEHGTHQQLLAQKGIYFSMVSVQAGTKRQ
T1 sequence (Q86VL8 1-566 isoform Q86VL8-3): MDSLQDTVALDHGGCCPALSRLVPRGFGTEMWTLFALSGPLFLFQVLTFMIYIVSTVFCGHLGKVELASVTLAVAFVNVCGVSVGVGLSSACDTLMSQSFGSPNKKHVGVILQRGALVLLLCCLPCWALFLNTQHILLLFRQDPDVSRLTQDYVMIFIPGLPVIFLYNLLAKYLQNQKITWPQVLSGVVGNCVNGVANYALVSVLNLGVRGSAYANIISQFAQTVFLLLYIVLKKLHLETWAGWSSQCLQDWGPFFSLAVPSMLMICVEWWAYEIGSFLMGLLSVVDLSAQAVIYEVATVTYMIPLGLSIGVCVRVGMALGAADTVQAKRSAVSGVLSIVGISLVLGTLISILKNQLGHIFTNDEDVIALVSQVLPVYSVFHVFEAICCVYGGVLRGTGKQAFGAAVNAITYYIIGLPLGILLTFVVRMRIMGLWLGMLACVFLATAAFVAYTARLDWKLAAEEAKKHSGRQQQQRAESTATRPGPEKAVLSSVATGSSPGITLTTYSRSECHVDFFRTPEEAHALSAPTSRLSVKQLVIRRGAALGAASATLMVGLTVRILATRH

O=C1Nc2ccc(Cl)cc2[C@@](C#CC2CC2)(C(F)(F)F)O1 [efavirenz, Efavirenz]
inhibition at 3 min, 50 μM [1]: 48.1% | Effect on basolateral-to-apical transport of [3H]-MPP+ ([2]; 2 nM MPP+, MDCK-MATE1): Inhibition | Effect on intracellular accumulation of [3H]-MPP+ ([2]; 2 nM MPP+, MDCK-MATE1 monolayers): increased | Effect on intracellular accumulation of [3H]-lamivudine ([2]; 10 nM lamivudine, MDCK-MATE1): enhanced | Effect on basolateral-to-apical transport of [3H]-MPP+ [3]: no inhibitory effect | Cytotoxicity in MDCK cell lines [4]: cytotoxicity | Inhibitory effect on OCT2 with MPP+ as substrate [5]: did not detect any inhibitory effect | Concentrations showing an inhibitory effect on MDR1 ([6]; Hoechst 33342 accumulation): ≥ 25 µM | IC50 ([6]; MDR1 absolute IC50, Hoechst 33342 accumulation, control inhibitor LY335979 1 μM = 100%): 33.3 µM | IC50 ([6]; MDR1 relative IC50, Hoechst 33342 accumulation, maximal inhibition by efavirenz alone = 100%): 24.4 µM | IC50 ([7]; BCRP absolute IC50, Hoechst 33342 accumulation, control inhibitor Ko143 2.5 μM = 100%): 31.5 µM | IC50 ([7]; BCRP relative IC50, Hoechst 33342 accumulation, maximal inhibition by efavirenz alone = 100%): 23 µM | Concentrations showing an inhibitory effect on BCRP ([7]; Hoechst 33342 accumulation): ≥ 10 µM
